Molecules are shown by their SMILES.

The assay addresses T1, hα7-wt nAChR stably expressed in the GH4C1 cell line (Homo sapiens, UniProt P36544).
T1 construct: expressed in transfected cells
As to the kind of experiment: Ca2+ flux imaging (FLIPR) of PAM activity with choline as agonist. Format: cell-based. As to conditions: efficacy relative to 100 μM choline alone (defined as 1); peak fluorescence, fluo-4AM; compounds tested 0.1 μM to 30 μM, efficacy criterion at 10 μM. The source says: Stable expression in mammalian cells in general and rat GH4C1 cells in particular, of cDNA clones encoding the human α7 wild-type sequence (hα7-wt nAChR) and in which the coding region is placed downstream of a promoter results in the appearance of functional α7 nAChRs on the surface of the mammalian cells. This technique has provided a powerful means of assessing the function of α7 wild-type protein. Given the fact that the cation permeability of the α7 nicotinic receptor preferentially favours calcium, fluorescent imaging of Ca^2+ flux through the hα7-wt nAChR stably expressed in the GH4C1 cell line was used as a first means of assaying modulator activity of the compounds of the present invention.
a) Assay Buffer • Hanks buffered saline solution (HBSS, Invitrogen, Belgium), supplemented with 10 mM HEPES (Invitrogen, Belgium), CaCl2 to a final concentration of 5 mM, 0.1% Bovine serum albumin (Sigma-Aldrich NV, Belgium), 2.5 mM probenecid (Sigma-Aldrich NV, Belgium).
b) Calcium-Sensitive Dye—Fluo-4AM • Fluo-4AM (Molecular Probes, USA) was dissolved in DMSO containing 10% Pluronic acid (Molecular Probes, USA) to give a stock solution which was aliquoted and could be stored at −20° C. until later use. On the day of the experiment Fluo-4AM stock was defrosted and diluted in DMEM/F12 (Invitrogen, Belgium) containing 2.5 mM probenicid and 0.1% BSA to give a final concentration of 2 μM.
c) 96-well Plates • BD Biocoat poly-D-lysine 96-well black/clear bottom plates (BD Biosciences, Belgium)
d) Calcium Flux Measurement • A Fluorimetric Imaging Plate Reader (FLIPR, Molecular Devices Corporation, Sunnyvale, USA) was used to measure intracellular free-calcium flux signals
Monolayers of hα7-wt nAChR-expressing cells were grown in multi-well plates, in particular black-sided, transparent bottomed 96 well plates coated with poly-D-lysine for 24 hours prior to loading with a fluorescent calcium indicator, in a particular embodiment loading with fluo-3 or fluo-4AM for up to 90 minutes, in an even more particular embodiment loading with fluo-4AM for up to 90 minutes, and in a preferred embodiment loading with fluo-4AM for 60 minutes.
In a particular embodiment, the α7 nicotinic receptor agonist was choline, a more particular embodiment choline applied at a sub-maximal concentration of 100 μM.
A control response to choline was calculated on each plate from the difference in peak fluorescence in wells receiving either choline or assay buffer alone. Compounds of the present invention were tested at a concentration range from 0.1 μM to 30 μM.
The activity ranges are defined as follows; A denotes an activity range from 1.1 till 1.5, B denotes an activity range from 1.5 till 2.0, C denotes an activity range from 2.0 till 3.0, D denotes an activity range from 3.0 till 4.5 and E denotes an efficacy from at least 4.5.

T1 sequence (P36544 23-502): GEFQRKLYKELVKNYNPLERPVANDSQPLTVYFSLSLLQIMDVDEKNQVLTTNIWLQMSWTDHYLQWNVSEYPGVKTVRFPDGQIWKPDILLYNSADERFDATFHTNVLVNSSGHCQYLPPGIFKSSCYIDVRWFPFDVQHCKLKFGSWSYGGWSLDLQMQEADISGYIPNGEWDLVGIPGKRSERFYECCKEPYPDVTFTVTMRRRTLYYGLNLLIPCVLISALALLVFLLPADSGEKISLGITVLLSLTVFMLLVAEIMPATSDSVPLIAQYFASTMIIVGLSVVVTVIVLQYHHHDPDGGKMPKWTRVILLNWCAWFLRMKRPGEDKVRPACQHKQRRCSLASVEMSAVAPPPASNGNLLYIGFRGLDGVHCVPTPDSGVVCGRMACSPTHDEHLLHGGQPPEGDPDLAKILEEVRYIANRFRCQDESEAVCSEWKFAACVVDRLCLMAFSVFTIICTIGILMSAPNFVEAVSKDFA

For the compound `Cc1cccc(Nc2nc(-c3cccnc3)cs2)c1` [Compound 76], the “Activity Range” value was “C (C denotes an activity range from 2.0 till 3.0)”.

Turning to `CC(C)c1nc(Nc2cccc(C(F)(F)F)c2)sc1CO` [Compound 116], the “Activity Range” value is reported as “E (E denotes an efficacy from at least 4.5)”. For the compound `COc1ccc(Nc2nc(-c3ccc4c(c3)OCCO4)c(CO)s2)c(OC)c1` [Compound 95, 4-(2,3-dihydro-1,4-benzodioxin-6-yl)-2-[(2,4-dimethoxyphenyl)amino]-5-thiazolemethanol], the “Activity Range” value is “E (E denotes an efficacy from at least 4.5)”.

For the compound `Fc1ccc(Nc2nc(-c3cccnc3)c(F)s2)cc1C(F)(F)F` [Compound 81], the “Activity Range” value is “C (C denotes an activity range from 2.0 till 3.0)”.

With `COc1cc(OC)c(Nc2nc(-c3ccc(F)c(F)c3)c(CC(=O)N3CCCC3)s2)cc1Cl` [Compound 132], the “Activity Range” value is “E (E denotes an efficacy from at least 4.5)”.

As for `Cc1cccc(Nc2nc(-c3cnc4ccccn34)c(F)s2)c1` [Compound 82], the “Activity Range” value was “B (B denotes an activity range from 1.5 till 2.0)”. `Cc1cncc(-c2csc(Nc3cccc(Cl)c3Cl)n2)c1` [Compound 67]: the “Activity Range” value was “C (C denotes an activity range from 2.0 till 3.0)”. In the case of `Cc1ccc(-c2csc(Nc3cccc(C(F)(F)F)c3)n2)cn1` [Compound 68], the “Activity Range” value was “E (E denotes an efficacy from at least 4.5)”. On to `CCOC(=O)c1sc(Nc2ccc(OC)cc2)nc1C` [Compound 144], for which the “Activity Range” value is listed as “E (E denotes an efficacy from at least 4.5)”. For `O=C(Nc1cccnc1)c1sc(Nc2ccc(F)cc2)nc1-c1ccccc1` [Compound 169, 5-Thiazolecarboxamide, 2-[(4-fluorophenyl)amino]-4-phenyl-N-3-pyridinyl-], the “Activity Range” value is “D (D denotes an activity range from 3.0 till 4.5)”. As for `COc1ccc(OC)c(-c2csc(Nc3cc(F)ccc3C)n2)c1` [Compound 33], the “Activity Range” value is reported as “D (D denotes an activity range from 3.0 till 4.5)”. Turning to `CNC(=O)Cc1sc(Nc2cc(Cl)c(OC)cc2OC)nc1-c1ccc2c(c1)OCCO2` [Compound 97, 2-[(5-chloro-2,4-dimethoxyphenyl)amino]-4-(2,3-dihydro-1,4-benzodioxin-6-yl)-N-methyl-5-thiazoleacetamide], the “Activity Range” value is reported as “E (E denotes an efficacy from at least 4.5)”. To `CCOC(=O)c1sc(Nc2ccc(OC)cc2)nc1C1CC1` [Compound 146] belongs “E (E denotes an efficacy from at least 4.5)”; to `O=C(Nc1cccnc1)c1sc(Nc2ccccc2)nc1-c1ccccc1` [Compound 171, 5-Thiazolecarboxamide, 4-phenyl-2-(phenylamino)-N-3-pyridinyl-], “E (E denotes an efficacy from at least 4.5)”; to `c1ccn2c(-c3csc(Nc4ccc5c(c4)CCO5)n3)cnc2c1` [Compound 46], “C (C denotes an activity range from 2.0 till 3.0)”. To `Fc1sc(Nc2cccc(C(F)(F)F)c2)nc1-c1cnc2ccccn12` [Compound 80] belongs “C (C denotes an activity range from 2.0 till 3.0)”; to `FC(F)(F)c1ccc(Nc2nc(-c3cccnc3)cs2)cn1` [Compound 65], “C (C denotes an activity range from 2.0 till 3.0)”; to `FC(F)(F)c1cccc(Nc2nc(-c3cnc4ccccn34)cs2)c1` [Compound 71], “B (B denotes an activity range from 1.5 till 2.0)”. In the case of `COCCNC(=O)Cc1sc(Nc2cc(Cl)ccc2Cl)nc1-c1ccncc1` [Compound 106, 2-[(2,5-dichlorophenyl)amino]-N-(2-methoxyethyl)-4-(4-pyridinyl)-5-thiazoleacetamide], the “Activity Range” value is reported as “E (E denotes an efficacy from at least 4.5)”.

In the case of `Fc1cccc(-c2nc(Nc3cccc(C(F)(F)F)c3)sc2F)c1` [Compound 7], the “Activity Range” value is “C (C denotes an activity range from 2.0 till 3.0)”. Turning to `Cc1sc(Nc2ccc(C(F)(F)F)cc2)nc1-c1cccnc1` [Compound 87], the “Activity Range” value is “C (C denotes an activity range from 2.0 till 3.0)”. On to `Brc1ccc(Nc2nc(-c3cnc4ccccn34)cs2)cn1` [Compound 45], for which the “Activity Range” value is “D (D denotes an activity range from 3.0 till 4.5)”. On to `COc1ccccc1Nc1nc(-c2ccccc2Cl)cs1` [Compound 42], for which the “Activity Range” value is on record as “B (B denotes an activity range from 1.5 till 2.0)”. In the case of `CSc1cccc(Nc2nc(-c3cnc4ccccn34)cs2)c1` [Compound 52], the “Activity Range” value was “C (C denotes an activity range from 2.0 till 3.0)”. As to `Cc1ccc(Nc2nc(-c3cncc(Br)c3)c(CO)s2)cn1` [Compound 125], the “Activity Range” value is on record as “E (E denotes an efficacy from at least 4.5)”.

Turning to `Clc1ccc(Nc2nc(-c3cnc4ccccn34)cs2)cc1` [Compound 53], the “Activity Range” value is “D (D denotes an activity range from 3.0 till 4.5)”.

In the case of `OCc1sc(Nc2ccc(F)c(C(F)(F)F)c2)nc1-c1ccncc1` [Compound 89], the “Activity Range” value is listed as “E (E denotes an efficacy from at least 4.5)”. On to `Cc1sc(Nc2ccc(C(F)(F)F)cc2)nc1-c1cnc2ccccn12` [Compound 85], for which the “Activity Range” value is “C (C denotes an activity range from 2.0 till 3.0)”. In the case of `COc1ccc(OC)c(-c2csc(Nc3ccccc3Cl)n2)c1` [Compound 43], the “Activity Range” value is “B (B denotes an activity range from 1.5 till 2.0)”. `COc1ccc(OC)c(-c2csc(Nc3cccc4[nH]ncc34)n2)c1` [Compound 34]: the “Activity Range” value was “C (C denotes an activity range from 2.0 till 3.0)”. On to `COc1ccc(Nc2nc(-c3cnc4ccccn34)cs2)c(OC)c1` [Compound 50], for which the “Activity Range” value is “D (D denotes an activity range from 3.0 till 4.5)”. As to `COc1ccc(Nc2nc(-c3cc(Cl)c(OC)cc3OC)c(CO)s2)c(OC)c1` [Compound 126], the “Activity Range” value is “E (E denotes an efficacy from at least 4.5)”. For `Cc1sc(Nc2ccc(Br)cc2)nc1-c1cccnc1` [Compound 137], the “Activity Range” value is recorded as “D (D denotes an activity range from 3.0 till 4.5)”.

As for `COC(=O)c1sc(Nc2cccc(C(F)(F)F)c2)nc1C(C)C` [Compound 148], the “Activity Range” value is recorded as “E (E denotes an efficacy from at least 4.5)”.

Consider `COCCc1nc(Nc2ccc(OC)cc2)sc1C(=O)OC` [Compound 158], for which the “Activity Range” value is listed as “E (E denotes an efficacy from at least 4.5)”. The same measure for `FC(F)(F)c1cccc(Nc2nc(-c3cncnc3)cs2)c1` [Compound 73]: “C (C denotes an activity range from 2.0 till 3.0)”; for `CSc1cccc(Nc2nc(-c3cccnc3)c(C)s2)c1` [Compound 141]: “C (C denotes an activity range from 2.0 till 3.0)”; for `Clc1cccc(Nc2nc(-c3cnc4sccn34)cs2)c1` [Compound 61]: “C (C denotes an activity range from 2.0 till 3.0)”. As to `FC(F)(F)c1cccc(Nc2nc(-c3cnc4ccccn34)cs2)c1` [Compound 56], the “Activity Range” value is listed as “C (C denotes an activity range from 2.0 till 3.0)”.

For the compound `CCCc1nc(Nc2ccc(OC)cc2)sc1C(=O)OCC` [Compound 102], the “Activity Range” value was “E (E denotes an efficacy from at least 4.5)”. With `Cc1ccc(Nc2nc(-c3cccnc3)cs2)cn1` [Compound 66], the “Activity Range” value was “D (D denotes an activity range from 3.0 till 4.5)”.

Turning to `CCOC(=O)c1sc(Nc2cccc(C(F)(F)F)c2)nc1C` [Compound 143], the “Activity Range” value is reported as “E (E denotes an efficacy from at least 4.5)”. The same measure for `CCOC(=O)c1sc(Nc2cc(Cl)ccc2Cl)nc1-c1ccccc1` [Compound 174, 5-Thiazolecarboxylic acid, 2-[(2,5-dichlorophenyl)amino]-4-phenyl-, ethyl ester]: “E (E denotes an efficacy from at least 4.5)”; for `Cc1ccc(Nc2nc(-c3ccccc3)c(C(=O)Nc3cccnc3)s2)c(C)c1` [Compound 170, 5-Thiazolecarboxamide, 2-[(2,4-dimethylphenyl)amino]-4-phenyl-N-3-pyridinyl-]: “E (E denotes an efficacy from at least 4.5)”. On to `CCCc1nc(Nc2cc(Cl)ccc2Cl)sc1C(=O)OCC` [Compound 156], for which the “Activity Range” value was “E (E denotes an efficacy from at least 4.5)”. Turning to `Brc1ccc(Nc2nc(-c3cccnc3)cs2)cn1` [Compound 64], the “Activity Range” value is reported as “D (D denotes an activity range from 3.0 till 4.5)”.

The record behind these values is US9388175B2, “2-aniline-4-aryl substituted thiazole derivatives” (Janssen Pharmaceutica N.V., priority 2005, dated 2016).
